# Data reported in patent US4758580A, “Inhibiting growth of tumors with certain substituted phenoxy dimethyl alkanoic acids, esters or salts” (Yamanouchi Pharmaceutical Co., Ltd., priority 1985, dated 1988).
# Assays:
# [1] = tested on: Ehrlich (carcinoma); test: In vitro cytotoxicity against mouse tumor cells, Ehrlich; format: cell-based; conditions: Ehrlich, 72 h
# Method: (§1) A suspension of cells in a culture medium was transferred into wells in a microplate in an amount of 1×10^5 cells/wall. Test sample diluted with a culture medium was added to the suspension in each well, and the mixture was incubated on the medium at 37° C. for 3 days in atmosphere of air containing 5% carbon dioxide. Thereafter, the incubated cells were recovered from the microplate and the number of live cells was counted by the dye exclusion test using a 0.5% solution of trypan blue and by using a hemocytomer.
# [2] = tested on: Ehrlich solid tumor; test: Anti-tumor test against Ehrlich solid tumor; format: in vivo, ddY/SLC mice
# Method: Ehrlich tumor cells, 2×10^6, on Day 7 after intraperitoneal transplantation to ddY/SLC mice were subcutaneously transplanted in the left abdomen of ddY/SLC mice (5 week age, male), 10 each grouped into one. The active component was intraperitoneally or orally administered in a definite dose 24 hours after the transplantation, according to the schedule shown in Table 1 (A), (B) or (C). An effect of inhibiting growth of tumor was compared, by measuring the long diameter and short diameter of the tumor on 14, 20 and 21 Days after the transplantation, calculating the tumor size (mm^2) and determining a tumor growth inhibition rate of the group administered with the active component to the control group according to the following equation:
# Growth inhibition rate (%)=(C-T)/C×100
# T: means tumor size (mm^2) in the active component-administered group
# C: mean tumor size (mm^2) in the control group
# [3] = tested on: Bowes (melanoma); test: In vitro cytotoxicity against human tumor cells, Bowes; format: cell-based; conditions: 72 h
# Method: (§2) A suspension of cells in a culture medium was transferred into wells in a microplate in an amount of 5×10^4 cells/well. Test sample diluted with a culture medium was added to the suspension in each well, and the mixture was incubated at 37° C. for 3 days in an atmosphere of air containing 5% carbon dioxide. After skimming, sticking cells were dyed which crystalviolet for 10 minutes. After washing with water, 1% sodium lauryl sulfate solution was added to each well, and the absrobancy (optical density) at […] was measured. "% inhibition" was calculated from the following equation. [formula]
# [4] = tested on: Ehrlich ascites tumor; test: Anti-tumor effect against Ehrlich ascites tumor; format: in vivo, ddY/SLC mice; conditions: 25 mg/kg i.p., 1-9 Days
# Method: Ehlrich tumor cells, 1×10^6, on Day 7 after intraperitoneal transplantation to ddY/SLC mice were intraperitoneally transplanted to ddY/SLC mice (5 week age, male) of 10 mice each being grouped in one. The active component was intraperitoneally administered in a definite dose 24 hours after the transplantation according to the schedule shown in Table 4. An effect of tumor growth inhibition was evaluated by a percentage of the median survival day of the administered group versus that of the control group, according to the following equation.
# (§3) T: median survival day of the administered group
# (§4) C: median survival day of the control group
# [5] = tested on: L-1210; test: In vitro cytotoxicity against mouse tumor cells, L-1210; format: cell-based; conditions: L1210, 72 h
# Method: as §1
# [6] = tested on: KB (nasal cavity & pharynx cancer); test: In vitro cytotoxicity against human tumor cells, KB; format: cell-based; conditions: 72 h
# Method: as §2
# [7] = tested on: MH 134 (liver cancer); test: In vitro cytotoxicity against mouse tumor cells, MH 134; format: cell-based; conditions: MH 134, 72 h
# Method: as §1
# [8] = tested on: Meth A (methylcholanthrene-induced cancer); test: In vitro cytotoxicity against mouse tumor cells, Meth A; format: cell-based; conditions: Meth-A, 72 h
# Method: as §1
# [9] = tested on: MM-46 ascites tumor; test: Anti-tumor test against mice mammary cancer MM-46 ascites tumor; format: in vivo, C3 H/He/CRJ mice
# Method: MM-46 tumor cells, 1×10^6, on Day 7 after intraperitoneal transplantation to C3 H/He/CRJ mice (5 week age, male) of 10 mice each being grouped in one. The active component was intraperitoneally administered in a definite dose 24 hours after the transplantation according to the schedule shown in Table 5. An effect of tumor growth inhibition was evaluated by a percentage of the median survival time of the administered group versus that of the control group, according to the following equation.
# as §3, §4
# [10] = tested on: liver cancer (MH-134) cells; test: Inhibition of spontaneous metastasis (to the lymph node) of liver cancer (MH-134) cells in mice; format: in vivo, C3 H/He/SLC mice; conditions: 20th day
# Method: (a) Inhibition of spontaneous metastasis (to the lymph node) of liver cancer (MH-134) cells in mice
# MH-134 tumor cells, 1×10^6, on Day 7 after intraperitoneal transplantation to C3 H/He/SLC mice were transplanted to the right leg. On the 11th day after the transplantation, the right leg portion wherein the cancer cells were transplanted were cut off. The test compounds were administered orally in a definite dose 24 hours after the transplantation. In order to confirm metastasis-inhibiting effect, on 20th day of the transplantation the mice were anatomised to observe the metastasis to the lymph node in the inguinal portion. [formula] Further, the weight of the lymph node metastasis tumor in the inguinal portion of anatomised mice was measured. [formula]
# [11] = tested on: ACHN (kidney cancer); test: In vitro cytotoxicity against human tumor cells, ACHN; format: cell-based; conditions: 72 h
# Method: as §2
# [12] = Day 14, 2.5 mg/kg i.p., Days 1, 2, 3, 5 & 6
# [13] = Day 14, 12.5 mg/kg i.p., Days 1, 2, 3, 4, 6, 7, 8, 9
# [14] = Day 14, 25 mg/kg i.p., Days 1, 2, 3, 4 & 7
# [15] = Day 14, 25 mg/kg i.p., Days 1, 2, 3, 4, 6, 7, 8, 9
# [16] = Day 21, 2.5 mg/kg i.p., Days 1, 2, 3, 5 & 6
# [17] = Day 21, 12.5 mg/kg i.p., Days 1, 2, 3, 4, 6, 7, 8, 9
# [18] = Day 21, 25 mg/kg i.p., Days 1, 2, 3, 4 & 7
# [19] = Day 21, 25 mg/kg i.p., Days 1, 2, 3, 4, 6, 7, 8, 9
# [20] = 6.25 mg/kg i.p., 1, 2, 3, 4 and 6 Days
# [21] = 12.5 mg/kg i.p., 1, 2, 3, 4 and 6 Days
# [22] = 25 mg/kg i.p., 1, 2, 3, 4 and 6 Days
# [23] = 50 mg/kg oral, 1, 3, 5, 7, 9, 11, 13 and 15 days
# [24] = 100 mg/kg oral, 1, 3, 5, 7, 9, 11, 13 and 15 days
smiles,measurement,setting,value
"O=c1[nH]cc(F)c(=O)[nH]1 [5-Fluorouracil, reference compound]",IC50,[1],0.05 µg/mL
same,Growth Inhibition Rate,[2]; [12],42.9%
same,Size of Tumor,[2]; [12],133.7 ± 61.1 mm^2
same,Growth Inhibition Rate,[2]; [13],44.1%
same,Size of Tumor,[2]; [13],142.6 ± 36.9 mm^2
same,Growth Inhibition Rate,[2]; [14],40.0%
same,Size of Tumor,[2]; [14],86.7 ± 35.1 mm^2
same,Growth Inhibition Rate,[2]; [15],54.4%
same,Size of Tumor,[2]; [15],116.3 ± 44.0 mm^2
same,Growth Inhibition Rate,[2]; [16],42.4%
same,Size of Tumor,[2]; [16],306.8 ± 166.8 mm^2
same,Growth Inhibition Rate,[2]; [17],34.2%
same,Size of Tumor,[2]; [17],280.6 ± 68.9 mm^2
same,Growth Inhibition Rate,[2]; [18],57.5%
same,Size of Tumor,[2]; [18],217.8 ± 126.2 mm^2
same,Growth Inhibition Rate,[2]; [19],40.8%
same,Size of Tumor,[2]; [19],252.3 ± 100.3 mm^2
same,IC50,[3],0.61 µg/mL
same,Median Survival Day,[4],24.5 days
same,No. of 40-day Survivors,[4],0/8
same,T/C (median survival),[4],163.3%
same,IC50,[5],0.06 µg/mL
same,IC50,[6],1.75 µg/mL
same,IC50,[7],0.009 µg/mL
same,IC50,[8],0.1 µg/mL
same,Median Survival Day,[9]; [20],16.0 days
same,Survivors (90 days),[9]; [20],0/10
same,T/C (median survival),[9]; [20],213.3%
same,Median Survival Day,[9]; [21],17.0 days
same,Survivors (90 days),[9]; [21],0/10
same,T/C (median survival),[9]; [21],226.7%
same,Median Survival Day,[9]; [22],20.0 days
same,Survivors (90 days),[9]; [22],0/10
same,T/C (median survival),[9]; [22],266.7%
same,Growth inhibition of the metastasis tumor,[10]; [23],48.7%
same,Metastasis-inhibition rate,[10]; [23],17.7%
same,Growth inhibition of the metastasis tumor,[10]; [24],74.2%
same,Metastasis-inhibition rate,[10]; [24],41.2%
same,IC50,[11],0.1 µg/mL
